Results from US4220790A, “1-N,N-Dimethylcarbamyl-3-tert.butyl-5-methylthio-1,2,4-triazole” (priority 1977, dated 1980).

How the values were obtained:
Southern Corn Rootworm [1] = test: Southern corn rootworm (SCR) test in cups with corn; type: in vivo; details: for Corn Rootworm (SCR) rating: nine days after treatment; for toxicity to corn rootworm (in words): comparative tests, nineteen compounds
Procedure: Method for Southern Corn Rootworm (SCR)
Three 5 oz. paper cups planted each with one kernel of DeKalb XL-361 corn are treated two days after planting with 10 ml of a 125 ppm solution of the candidate compound. Compounds with high efficacy are tested at lower concentrations. The experiment is a 4×5 factorial in a randomized complete block design with three replications. The tests are evaluated nine days after treatment. The roots are inspected under a dissecting microscope and rated as follows:
SCR Rating % Root Feeding Damage
So as to obtain more meaningful results, all tests are performed at the same time of day, whenever possible, usually in the forenoon. Temperature,illumination and humidity are the same in all tests. Atmospheric pressure is not controlled.
(§1) Results obtained with the novel insecticide of this invention at various concentrations of active chemical are tabulated below. The ratings given are for averages of three or more replicates. The oral lethal dose for 50 percent kill of laboratory rats is also recorded in the table. In conducting the toxicity tests on rats, 0.01 g of active chemical per ml in corn oil is employed as an additive to the diet of the animals.

Southern corn rootworm [2] = test: Corn rootworm control under corn growing conditions, aging in soil, root damage rating; type: in vivo, Diabrotica undecimpunctata howardi; parameters: AVERAGE ROOT DAMAGE RATINGS, Test No. 1 / AVERAGE ROOT DAMAGE RATINGS, Test No. 2 / AVERAGE ROOT DAMAGE RATINGS, Test No. 3 / AVERAGE ROOT DAMAGE RATINGS, Test No. 4 / AVERAGE ROOT DAMAGE RATINGS, Test No. 5: scale not given here; details: for AVERAGE ROOT DAMAGE RATINGS, Test No. 3 / AVERAGE ROOT DAMAGE RATINGS, Test No. 4 / AVERAGE ROOT DAMAGE RATINGS, Test No. 5: 1.0 lb/A; for AVERAGE ROOT DAMAGE RATINGS, Test No. 3 / AVERAGE ROOT DAMAGE RATINGS, Test No. 1: aged 11 days; for AVERAGE ROOT DAMAGE RATINGS, Test No. 4: aged 26 days; for AVERAGE ROOT DAMAGE RATINGS, Test No. 5 / AVERAGE ROOT DAMAGE RATINGS, Test No. 2: aged 41 days; for AVERAGE ROOT DAMAGE RATINGS, Test No. 1 / AVERAGE ROOT DAMAGE RATINGS, Test No. 2: 10.0 lb/A
Description: During this period of time in the soil the insecticide concentration diminishes as a result of leaching and the action of oxygen and soil microbes, so that it is difficult to maintain sufficient concentration to kill the rootworms. […] Less than a half dozen compounds enjoy substantial commercial success for this purpose. […] Carbofuran was therefore selected as a standard for comparison of his compound and closely related compounds for corn rootworm control under corn growing conditions. The organism used in these tests were Diabrotica undecimpunctata howardi, the Southern corn rootworm. The following method was employed in the tests:
Two parallel rows of corn (Pioneer 385 g×526 g untreated) were planted 2" apart down the center of Mirro No. C8509 aluminum bread pans, 5 kernels corn per row in greenhouse potting soil. The dimensions of the bread pans are 95/8"×51/2"×23/4" and lack holes in the bottoms of the pans. Each kernel of corn at time of germination was infested with 3-day-old SCR eggs, approximately 50 eggs per kernel. Test pans were treated by drenching 200 mls of test solution (Triton X-100, water and the test chemical dissolved in 5 mls acetone) on the surface of the soil in the bread pan. The schedule for treating, planting corn, and infesting with corn rootworm eggs were varied to test aging characteristics of the compounds in soil. The test pans were watered daily and held at 80° F. and 50% R.H. until rated. Root damage rating was done by the following rating sequence:
Rating % Root Damage Rating
The chemical compound which were tested were those of the structural formula [drawing 5] in which R represents tert.butyl, methyl, ethyl, propyl, butyl and isobutyl.
The comparison standard was carbofuran (2,3-dihydro-2,2-dimethyl-7-benzofuranyl methylcarbamate).
The tests were conducted during the months of July and August according to the time schedule as set forth below: […]

two-spotted mites = test: Spray test on two-spotted mites (TSM); parameters: species or system two-spotted mite; details: in vivo
Procedure: Method for Mites, Aphids, Bean Beetles and Army Worms
Three 5 oz. paper cups containing Henderson dwarf lima bean plants and one 5 oz. paper cup containing Orange Gem nasturtiums, all growing in vermiculite, are placed on a turntable and sprayed to thorough wetness with 25 ml of a solution of the candidate chemical at the appropriate concentration. Nasturtiums were already infested with 50-100 bean aphids (BA). A bean plant in one paper cup was already infested with 50-100 two-spotted mites (TSM). Leaves from the two remaining bean plants are removed following spraying and placed in disposable petri dishes with 5 southern armyworm (SA) larvae in one petri dish, and 5 Mexican bean beetle (MBB) larvae in the other petri dish. The rating is done approximately 48 hours after spraying as follows:
as §1

[3] = system: insects of the orders Coleoptera and Orthoptera; test: Effectiveness against insects of the orders Coleoptera and Orthoptera; type: in vivo

Structure (SMILES) | Corn Rootworm (SCR) rating (Southern Corn Rootworm [1]; 3 ppm) | Corn Rootworm (SCR) rating (Southern Corn Rootworm [1]; 12 ppm) | Corn Rootworm (SCR) rating (Southern Corn Rootworm [1]; 25 ppm) | Corn Rootworm (SCR) rating (Southern Corn Rootworm [1]; 100 ppm) | total kill of corn rootworm (in words) (Southern Corn Rootworm [1]; any concentration) | toxicity to corn rootworm (in words) (Southern Corn Rootworm [1]) | AVERAGE ROOT DAMAGE RATINGS, Test No. 3 (Southern corn rootworm [2]) | AVERAGE ROOT DAMAGE RATINGS, Test No. 4 (Southern corn rootworm [2]) | AVERAGE ROOT DAMAGE RATINGS, Test No. 5 (Southern corn rootworm [2]) | AVERAGE ROOT DAMAGE RATINGS, Test No. 1 (Southern corn rootworm [2]) | AVERAGE ROOT DAMAGE RATINGS, Test No. 2 (Southern corn rootworm [2]) | miticidal activity (in words) (two-spotted mites) | duration of efficacy against corn rootworm (in words) (Southern corn rootworm [2]; compared with carbofuran) | Corn Rootworm (SCR) rating (Southern Corn Rootworm [1]; 3 ppm, listed as U.S.Ser.No. 842,760) | Corn Rootworm (SCR) rating (Southern Corn Rootworm [1]; 6 ppm) | insecticidal effectiveness (in words) [3]
CCc1nc(SC)n(C(=O)N(C)C)n1 [Example XVI] | 0.5 | 2.5 | 3.5 | 3.7 | failed to give a total kill at any concentration | displayed toxicity to corn rootworm |  |  |  |  |  |  |  |  |  | 
CCc1nc(SC)n(C(=O)N(C)C)n1 [R' = ethyl] |  |  |  |  |  |  | 0 (100) | 1.1 | 1.0 | 4.3 | 3.0 |  |  |  |  | 
CSc1nc(C(C)(C)C)nn1C(=O)N(C)C [1-N,N-Dimethylcarbamyl-3-tert.butyl-5-methylthio-1,2,4-triazole] |  |  |  |  |  | displayed toxicity to corn rootworm | 4.5 | 4.1 | 4.6 | 5.0 | 4.3 | absence of miticidal activity | efficacy of long duration, comparable to the commercial insecticide | 3.0 | 3.3 | effective against insects of the orders Coleoptera and Orthoptera
CSc1nc(C)nn1C(=O)N(C)C [R' = methyl] |  |  |  |  |  |  | 0 (100) | 0.1 | 0.5 | 2.7 | 0 (100) |  |  |  |  | 
CCCc1nc(SC)n(C(=O)N(C)C)n1 [R' = propyl] |  |  |  |  |  |  | 0.3 | 1.8 | 2.3 | 4.4 | 3.1 |  |  |  |  | 
CNC(=O)Oc1cccc2c1OC(C)(C)C2 [Carbofuran, 2,3-dihydro-2,2-dimethyl-7-benzofuranyl methylcarbamate] |  |  |  |  |  |  | 4.3 | 3.8 | 4.7 | 4.8 | 4.1 |  |  |  |  | 
CCCCc1nc(SC)n(C(=O)N(C)C)n1 [R' = butyl] |  |  |  |  |  |  | 0 (100) | 0.4 | 0.5 | 4.4 | 3.6 |  |  |  |  | 
CSc1nc(CC(C)C)nn1C(=O)N(C)C [R' = isobutyl] |  |  |  |  |  |  | 0.6 | 0.3 | 2.3 | 4.8 | 3.6 |  |  |  |  | 
